Results reported in US20110053900A1, “PROGESTERONE ANTAGONISTS SUCH AS CDB-4124 IN THE TREATMENT OF BREAST CANCER” (Repros Therapeutics inc, priority 2008, published 2011).
Marks after values point to notes of the source that are not given here.

Experiments:
[1] = test system: rat tumors (proliferation marker Ki-67); assay: Tumor proliferation by Ki-67 immunohistochemistry; type: in vivo; conditions: 10 mg/kg
From the text: In order to assess the effects of progestins and anti-progestins on cell proliferation, tissue sections derived from 46 individual rat tumors from treated an control animals were examined by measuring expression of the proliferation marker Ki-67 using the Ki-67 antibody (NeoMarkers, Fremont, Calif.) and immunohistochemistry. Despite the reduction in size of many tumors in Groups 3 and 6 following treatment in Groups 3 and 6 making them too small to be re-cut, 7-12 ACAs from Groups 1, 3, 4, 6 and 11 were re-cut. The results of proliferation experiments, in which proliferation was measured as a percentage of cells expressing Ki-67, are summarized in Table 4: […]

[2] = test system: DMBA-induced tumors of the rat mammary gland; assay: DMBA-induced breast tumors: tumor number and tumor type at necropsy; type: in vivo; conditions: for ACA + PCA per rat / ACA per rat / FA/AF no. / Incidence of tumors (%) / Incidence of tumors (rats with tumors/rats) / PCA per rat: 28 days
Method: (§1) To induce breast tumors, Sprague-Dawley female rats were given 10 mg/kg body weight of DMBA at 50 days of age. One group of 14 rats (Group 2) received sesame oil at 50 days of age instead of DMBA to serve as the no-DMBA controls. Animals were weighed and palpated weekly along the milk line for any sign of lesions or swellings. Tumor nodules were noted and measured weekly in two dimensions with calipers. When tumors grew to a size of 10-12 mm in any dimension, the individual animal was randomized into one of 14 groups. Tumors appeared as soon as 39 days after oral gavage and as late as 194 days (latter individual not included in study). The mean latency period for tumor appearance was 106±30 days.
(§2) Animals were treated for 28 days on the following schedule. Group 1 received daily subcutaneous (s.c.) injections of vehicle (10% ethanol in sesame oil). Group 2 (no DMBA control group-no tumors expected) received vehicle on a schedule decided beforehand to simulate initiation of treatment over a three-month time period. […] Groups 5 through 9 received 20 mg/kg, 10 mg/kg, 2 mg/kg, 1 mg/kg and 0.1 mg/kg of CDB-4124, respectively. Groups 10 through 14 mirrored the treatment given 5 through 9 except that 10 mg/kg of micronized progesterone was also added as a component to compositions for injections.
(§3) Animals were sacrificed 3-5 days after the end of the 28-day treatment period, blood was drawn, and tumors were removed, weighed, measured, inspected, and portions frozen and/or placed in 10% phosphate buffered formalin for histopathology. The tissue samples were cut and stained with hematoxylin and eosin and were evaluated for histopathological classification.
Histologically, four types of tumors were identified (Table 2): adenocarcinomas (ACAs), papillary carcinomas (PCAs), a fibrosarcoma, and fibroadenomas or adenofibromas (FA or AF), the latter two tumor types were not considered to represent frank malignancies.

Serum cortisol by ELISA = type: in vivo, rat; conditions: 10 mg/kg, 21 days of dosing
Method: (§4) The animals were assessed three times for their levels of progesterone: initially, when they were about to go on treatment; a second time after 21 days of treatment; and finally after treatment at sacrifice which was 2-4 days after the last s.c. injection. All blood samples were taken by heart puncture; serum was prepared and held frozen at −40° C. The levels of the steroid hormones progesterone, cortisol, and corticosterone were determined by ELISA.
(§5) The concentrations of steroid hormones were determined three times during the study: before the beginning of treatments, after 21 days of treatment and finally after treatment at sacrifice which was 2-4 days after the last s.c. injection. All samples were taken by heart puncture. Serum was obtained and held frozen at −40° C. The levels of steroid hormones were determined by ELISA.

rat tumors = assay: Apoptosis in tumors; type: in vivo; conditions: 10 mg/kg
Method: Apoptosis was evaluated in the same tumors by an apoptosis hybridization kit (Oncor, Gaithersburg, Md.). The cells in apoptosis were evaluated in the peripheral areas of the tumors and far from necrosis. At least 1,000 cells per tumor section were evaluated.

[3] = test system: DMBA-induced tumors of the rat mammary gland; assay: DMBA-induced breast tumors: tumor progression (growth pattern); type: in vivo; conditions: 10 mg/kg
Method: as §1, §2
In order to evaluate the effects of CDB-4124, RU486 and progesterone on tumor development and progression, growth kinetics and tumor size were monitored during the treatment period. Individual tumors from animals with tumors in the study were measured weekly in two dimensions with calipers. The data is corrected to exclude the non-malignant FA/AF tumor types. Tumors that increased in cross-sectional area by at least 33% over the 28-day inspection period were considered to be growing (FIG. 1, black boxes). Those that decreased by approximately 33% were considered to be regressing (FIG. 1, white boxes). Others were considered to be static (FIG. 1, gray boxes).

[4] = test system: DMBA-induced tumors of the rat mammary gland; assay: DMBA-induced breast tumors: tumor number, size and tumor burden at necropsy; type: in vivo; conditions: for Tumor Burden / Tumor Weight mean / Tumor Weight median / Number of Tumors: 28 days; for Number of Tumors: FA/AF excluded; for lowering of tumor burden and median tumor sizes: 10 mg/kg, versus control
Method: as §1, §2, §3
The results in Table 3 are those for ACA, PCA and mixed ACA/PCA, but the FA or AF tumors are excluded.

T47Darom cells = assay: Crystal violet cell proliferation assay in aromatase-overexpressing T47D cells; type: cell-based; conditions: Homo sapiens, 96 h, 4 μM alone, 4 days
From the text: Untreated cells were used as a control. The crystal violet assay was used to measure cell proliferation. The dye in this assay, crystal violet, stains DNA. Upon solubilization, the amount of dye taken up by the cells can be quantitated in a spectrophotometer.

[5] = Estrogen levels in human females during administration; type: in vivo; conditions: administration periods of at least six months
[6] = Serum progesterone by ELISA; type: in vivo, rat; conditions: for Serum Progesterone, Before TX (mean): before treatment; for Serum Progesterone, During TX (mean): after 21 days of treatment; for Serum Progesterone, After TX (mean): at sacrifice 2-4 days after the last s.c. injection
Method: as §4, §5

COCC(=O)[C@@]1(OC(C)=O)CC[C@H]2[C@@H]3CCC4=CC(=O)CCC4=C3[C@@H](c3ccc(N(C)C)cc3)C[C@@]21C [CDB-4124, 21-methoxy-17α-acetoxy-11β-(4 N,N-dimethylaminophenyl)-19-norpregna-4,9-diene-3,20-dione]
Proliferating tumor cells by Ki-67, % cells positive [1]: 5.1 ± 4.2%
ACA + PCA per rat ([2]; 0.1 mg/kg s.c. daily): 2.25
ACA per rat ([2]; 0.1 mg/kg s.c. daily): 1.17
FA/AF no. ([2]; 0.1 mg/kg s.c. daily): 3
Incidence of tumors (%) ([2]; 0.1 mg/kg s.c. daily): (100) %
Incidence of tumors (rats with tumors/rats) ([2]; 0.1 mg/kg s.c. daily): 12/12
PCA per rat ([2]; 0.1 mg/kg s.c. daily): 0.83
ACA + PCA per rat ([2]; 1 mg/kg s.c. daily): 1.78
ACA per rat ([2]; 1 mg/kg s.c. daily): 1.67
FA/AF no. ([2]; 1 mg/kg s.c. daily): 2
Incidence of tumors (%) ([2]; 1 mg/kg s.c. daily): (82) %
Incidence of tumors (rats with tumors/rats) ([2]; 1 mg/kg s.c. daily): 9/11
PCA per rat ([2]; 1 mg/kg s.c. daily): 0.11
ACA + PCA per rat ([2]; 2 mg/kg s.c. daily): 1.55
ACA per rat ([2]; 2 mg/kg s.c. daily): 1.45
FA/AF no. ([2]; 2 mg/kg s.c. daily): 2
Incidence of tumors (%) ([2]; 2 mg/kg s.c. daily): (92) %
Incidence of tumors (rats with tumors/rats) ([2]; 2 mg/kg s.c. daily): 11/12
PCA per rat ([2]; 2 mg/kg s.c. daily): 0.09
ACA + PCA per rat ([2]; 10 mg/kg s.c. daily): 1.70
ACA per rat ([2]; 10 mg/kg s.c. daily): 1.5
FA/AF no. ([2]; 10 mg/kg s.c. daily): 1
Incidence of tumors (%) ([2]; 10 mg/kg s.c. daily): (91) %
Incidence of tumors (rats with tumors/rats) ([2]; 10 mg/kg s.c. daily): 10/11
PCA per rat ([2]; 10 mg/kg s.c. daily): 0.2
ACA + PCA per rat ([2]; 20 mg/kg s.c. daily): 1.38
ACA per rat ([2]; 20 mg/kg s.c. daily): 1.31
FA/AF no. ([2]; 20 mg/kg s.c. daily): 3
Incidence of tumors (%) ([2]; 20 mg/kg s.c. daily): (100) %
Incidence of tumors (rats with tumors/rats) ([2]; 20 mg/kg s.c. daily): 13/13
PCA per rat ([2]; 20 mg/kg s.c. daily): 0.08
average multiplicity across the highest four treatment groups ([2]; 20, 10, 2, 1 mg/kg/day): 1.58 tumors per rat
serum cortisol versus control group (in words) (Serum cortisol by ELISA): significantly higher levels of serum cortisol
Apoptosis, % cells positive (rat tumors): 3.84 ± 3.10%
proportion of tumors regressing ([3]; decrease of cross-sectional area by about 33% over 28 days): 70%
Tumor Burden ([4]; 0.1 mg/kg s.c. daily): 5.1 g/rat
Tumor Weight mean ([4]; 0.1 mg/kg s.c. daily): 2.26 g
Tumor Weight median ([4]; 0.1 mg/kg s.c. daily): 0.17 g
Number of Tumors ([4]; 0.1 mg/kg s.c. daily): 29
Tumor Burden ([4]; 1 mg/kg s.c. daily): 0.94 g/rat
Tumor Weight mean ([4]; 1 mg/kg s.c. daily): 0.53 g
Tumor Weight median ([4]; 1 mg/kg s.c. daily): 0.17 g
Number of Tumors ([4]; 1 mg/kg s.c. daily): 16
Tumor Burden ([4]; 2 mg/kg s.c. daily): 4.61 g/rat
Tumor Weight mean ([4]; 2 mg/kg s.c. daily): 2.98 g
Tumor Weight median ([4]; 2 mg/kg s.c. daily): 0.09 g
Number of Tumors ([4]; 2 mg/kg s.c. daily): 17
Tumor Burden ([4]; 10 mg/kg s.c. daily): 0.48 g/rat
Tumor Weight mean ([4]; 10 mg/kg s.c. daily): 0.26 g
Tumor Weight median ([4]; 10 mg/kg s.c. daily): 0.075 g
Number of Tumors ([4]; 10 mg/kg s.c. daily): 18
lowering of tumor burden and median tumor sizes [4]: 10 fold
Tumor Burden ([4]; 20 mg/kg s.c. daily): 4.71 g/rat
Tumor Weight mean ([4]; 20 mg/kg s.c. daily): 3.4 g
Tumor Weight median ([4]; 20 mg/kg s.c. daily): 0.125 g
Number of Tumors ([4]; 20 mg/kg s.c. daily): 20
inhibition at 4 µM (T47Darom cells): < 30%
estrogen levels in human females (in words) [5]: maintain estrogen levels in the normal range
Serum Progesterone, Before TX (mean) ([6]; 0.1 mg/kg group): 54 ng/mL
Serum Progesterone, During TX (mean) ([6]; 0.1 mg/kg): 53 ng/mL
Serum Progesterone, After TX (mean) ([6]; 0.1 mg/kg): 53 ng/mL
Serum Progesterone, Before TX (mean) ([6]; 1 mg/kg group): 64 ng/mL
Serum Progesterone, During TX (mean) ([6]; 1 mg/kg): 47 ng/mL
Serum Progesterone, After TX (mean) ([6]; 1 mg/kg): 42 ng/mL
Serum Progesterone, Before TX (mean) ([6]; 2 mg/kg group): 59 ng/mL
Serum Progesterone, During TX (mean) ([6]; 2 mg/kg): 74* ng/ml
Serum Progesterone, After TX (mean) ([6]; 2 mg/kg): 56 ng/mL
Serum Progesterone, Before TX (mean) ([6]; 10 mg/kg group): 52 ng/mL
Serum Progesterone, During TX (mean) ([6]; 10 mg/kg): 77* ng/ml
Serum Progesterone, After TX (mean) ([6]; 10 mg/kg): 43 ng/mL
Serum Progesterone, Before TX (mean) ([6]; 20 mg/kg group): 61 ng/mL
Serum Progesterone, During TX (mean) ([6]; 20 mg/kg): 96* ng/ml
Serum Progesterone, After TX (mean) ([6]; 20 mg/kg): 58 ng/mL

CC#C[C@]1(O)CC[C@H]2[C@@H]3CCC4=CC(=O)CCC4=C3[C@@H](c3ccc(N(C)C)cc3)C[C@@]21C [RU 486, mifepristone, reference compound]
Proliferating tumor cells by Ki-67, % cells positive [1]: 12.9 ± 7.0%
ACA + PCA per rat ([2]; 10 mg/kg s.c. daily): 2.00
ACA per rat ([2]; 10 mg/kg s.c. daily): 2.08
FA/AF no. ([2]; 10 mg/kg s.c. daily): 1
Incidence of tumors (%) ([2]; 10 mg/kg s.c. daily): (93) %
Incidence of tumors (rats with tumors/rats) ([2]; 10 mg/kg s.c. daily): 13/14
PCA per rat ([2]; 10 mg/kg s.c. daily): 0.08
serum cortisol versus control group (in words) (Serum cortisol by ELISA): no significant difference in the levels of cortisol
Apoptosis, % cells positive (rat tumors): 3.34 ± 2.57%
effect on tumor growth pattern (in words) ([3]; compared to the controls): apparent increase in the proportion of regressing tumors
Tumor Burden ([4]; 10 mg/kg s.c. daily): 2.47 g/rat
Tumor Weight mean ([4]; 10 mg/kg s.c. daily): 1.19 g
Tumor Weight median ([4]; 10 mg/kg s.c. daily): 0.16 g
Number of Tumors ([4]; 10 mg/kg s.c. daily): 27
lowering of tumor burden and median tumor sizes [4]: 5 fold
Serum Progesterone, Before TX (mean) ([6]; 10 mg/kg group): 58 ng/mL
Serum Progesterone, During TX (mean) ([6]; 10 mg/kg): 72* ng/ml
Serum Progesterone, After TX (mean) ([6]; 10 mg/kg): 52 ng/mL
